Experimental data reported in US20080274892A1, “Novel Haloalkylsulfonanilide Derivative, Herbicide, and Method of Use Thereof” (priority 2005, published 2008).

Tests used:
false pimpernel [1] = experiment: Test Example 2: herbicidal efficacy on rice paddy weeds post-emergence; assay type: in vivo, Lindernia pyxidaria; details: post-emergence, one leaf stage, 21 days after treatment
barnyard glass = experiment: as above; assay type: in vivo, Echinochloa crus-galli; details: post-emergence, one leaf stage, 21 days after treatment
In short: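 Efficacy on paddy weeds was scored on a 0 to 4 growth-inhibition scale: 4 for 90%-100%, 3 for 70%-89%, 2 for 40%-69%, 1 for 1%-39% and 0 for 0%. Barnyard glass was grown in clay loam in 75 cm^2 pots under 5 cm of water in a hot house. It was compared with untreated pots 21 days after treatment.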

bulrush [2] = experiment: Test Example 4: low dosage test for rice paddy weeds; assay type: in vivo, Scirpus juncoides; details: 300 g/ha as an active ingredient; plants treated at the one leaf stage; 21 days after treatment; vs untreated control
In short: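 Compound applied as a formulation at 300 g/ha to one-leaf bulrush grown in flooded clay loam (5 cm water) in a hot house. After 21 days, growth inhibition versus untreated plants rated on a 0–4 scale, with 4 meaning 90–100%.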

[3] = test system: transplanted paddy rice plant and Bulrush; experiment: Test Example 5: selectivity between transplanted paddy rice plant and weeds; assay type: in vivo; details: (highest dosage with no phytotoxicity to paddy rice)/(lowest dosage with effective level 4 on Bulrush); rice 3000-100 g/ha, Bulrush 300-10 g/ha; 21 days
In short: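 Scoring ran 21 days after treatment in a hothouse on a 0–4 scale (4 = 90–100%, 3 = 70–89%, 2 = 40–69%, 1 = 1–39%, 0 = none) relative to untreated plants. Post-emergence bulrush received 10, 30, 100 and 300 g/ha active ingredient. Transplanted rice received 100, 300, 1000 and 3000 g/ha to assess crop injury.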

false pimpernel [4] = experiment: Test Example 1: herbicidal efficacy on rice paddy weeds pre-emergence; assay type: in vivo, Lindernia pyxidaria; details: 21 days
bulrush [5] = experiment: as above; assay type: in vivo, Scirpus juncoides; details: 21 days
bulrush [6] = experiment: Test Example 2: herbicidal efficacy on rice paddy weeds post-emergence; assay type: in vivo, Scirpus juncoides; details: post-emergence, one leaf stage, 21 days after treatment
[7] = test system: paddy rice plant (cultivar: Nihonbare); experiment: Test Example 3: phytotoxicity test for transplanted paddy rice plant; assay type: in vivo; details: transplanted rice, 21 days after treatment
In short: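 Clay loam soil was placed in a 75 cm^2 plastic pot and flooded to a water depth of 5 cm. Two Nihonbare paddy rice plants at the two-leaf stage were transplanted 1 cm deep and grown in a hot house. After treatment, pots stayed in the hot house for 21 days, and phytotoxicity was then graded against an untreated control.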

[8] = dosage 1000 g/ha, treated 5 days after transplantation

CCCC1(CC)CN(Cc2ccccc2N(C(=O)OCC(C)C)S(=O)(=O)C(F)(F)F)C(=O)O1 (centres unmarked) [1-132]
False pimpernel post (herbicidal efficacy grade) (false pimpernel [1]; dosage 1000 g/ha): 4 (90%-100% of herbicidal efficacy or phytotoxicity) | Burnyard grass post (herbicidal efficacy grade) (barnyard glass; dosage 1000 g/ha): 4 (90%-100% of herbicidal efficacy or phytotoxicity) | Herbicide effect to Bulrush (bulrush [2]): 4 (90%-100% of herbicidal efficacy or phytotoxicity) | Selective Index [3]: 10 | False pimpernel pre (herbicidal efficacy grade) (false pimpernel [4]; dosage 1000 g/ha): 4 (90%-100% of herbicidal efficacy or phytotoxicity) | Bulrush pre (herbicidal efficacy grade) (bulrush [5]; dosage 1000 g/ha): 4 (90%-100% of herbicidal efficacy or phytotoxicity) | Bulrush post (herbicidal efficacy grade) (bulrush [6]; dosage 1000 g/ha): 4 (90%-100% of herbicidal efficacy or phytotoxicity) | Phytotoxicity to paddy rice [7, 8]: 1 (1%-39% of herbicidal efficacy or phytotoxicity)

CCC1(C(C)C)CN(Cc2ccccc2N(C(=O)OCC(C)C)S(=O)(=O)C(F)(F)F)C(=O)O1 (centres unmarked) [1-133]
False pimpernel post (herbicidal efficacy grade) (false pimpernel [1]; dosage 1000 g/ha): 4 (90%-100% of herbicidal efficacy or phytotoxicity) | Burnyard grass post (herbicidal efficacy grade) (barnyard glass; dosage 1000 g/ha): 4 (90%-100% of herbicidal efficacy or phytotoxicity) | Herbicide effect to Bulrush (bulrush [2]): 4 (90%-100% of herbicidal efficacy or phytotoxicity) | Selective Index [3]: 10 | False pimpernel pre (herbicidal efficacy grade) (false pimpernel [4]; dosage 1000 g/ha): 4 (90%-100% of herbicidal efficacy or phytotoxicity) | Bulrush pre (herbicidal efficacy grade) (bulrush [5]; dosage 1000 g/ha): 4 (90%-100% of herbicidal efficacy or phytotoxicity) | Bulrush post (herbicidal efficacy grade) (bulrush [6]; dosage 1000 g/ha): 4 (90%-100% of herbicidal efficacy or phytotoxicity) | Phytotoxicity to paddy rice [7, 8]: 1 (1%-39% of herbicidal efficacy or phytotoxicity)

CCC1(CC)CN(Cc2ccccc2N(C(=O)OCCOC)S(=O)(=O)C(F)(F)F)C(=O)O1 [1-134]
False pimpernel post (herbicidal efficacy grade) (false pimpernel [1]; dosage 1000 g/ha): 4 (90%-100% of herbicidal efficacy or phytotoxicity) | Burnyard grass post (herbicidal efficacy grade) (barnyard glass; dosage 1000 g/ha): 4 (90%-100% of herbicidal efficacy or phytotoxicity) | Herbicide effect to Bulrush (bulrush [2]): 4 (90%-100% of herbicidal efficacy or phytotoxicity) | Selective Index [3]: 10 | False pimpernel pre (herbicidal efficacy grade) (false pimpernel [4]; dosage 1000 g/ha): 4 (90%-100% of herbicidal efficacy or phytotoxicity) | Bulrush pre (herbicidal efficacy grade) (bulrush [5]; dosage 1000 g/ha): 4 (90%-100% of herbicidal efficacy or phytotoxicity) | Bulrush post (herbicidal efficacy grade) (bulrush [6]; dosage 1000 g/ha): 4 (90%-100% of herbicidal efficacy or phytotoxicity) | Phytotoxicity to paddy rice [7, 8]: 1 (1%-39% of herbicidal efficacy or phytotoxicity)

CC1(C(F)(F)F)CN(Cc2ccccc2NS(=O)(=O)C(F)(F)F)C(=O)O1 (centres unmarked) [1-135]
False pimpernel post (herbicidal efficacy grade) (false pimpernel [1]; dosage 300 g/ha): 4 (90%-100% of herbicidal efficacy or phytotoxicity) | Burnyard grass post (herbicidal efficacy grade) (barnyard glass; dosage 300 g/ha): 2 (40%-69% of herbicidal efficacy or phytotoxicity) | Herbicide effect to Bulrush (bulrush [2]): 3 (70%-89% of herbicidal efficacy or phytotoxicity) | Selective Index [3]: 3 | False pimpernel pre (herbicidal efficacy grade) (false pimpernel [4]; dosage 300 g/ha): 4 (90%-100% of herbicidal efficacy or phytotoxicity) | Bulrush pre (herbicidal efficacy grade) (bulrush [5]; dosage 300 g/ha): 4 (90%-100% of herbicidal efficacy or phytotoxicity) | Bulrush post (herbicidal efficacy grade) (bulrush [6]; dosage 300 g/ha): 4 (90%-100% of herbicidal efficacy or phytotoxicity) | Phytotoxicity to paddy rice ([7]; dosage 300 g/ha): 1 (1%-39% of herbicidal efficacy or phytotoxicity)

CC(C)COC(=O)N(c1ccccc1CN1CC(C)(C(F)(F)F)OC1=O)S(=O)(=O)C(F)(F)F (centres unmarked) [1-136]
False pimpernel post (herbicidal efficacy grade) (false pimpernel [1]; dosage 1000 g/ha): 4 (90%-100% of herbicidal efficacy or phytotoxicity) | Burnyard grass post (herbicidal efficacy grade) (barnyard glass; dosage 1000 g/ha): 4 (90%-100% of herbicidal efficacy or phytotoxicity) | Herbicide effect to Bulrush (bulrush [2]): 4 (90%-100% of herbicidal efficacy or phytotoxicity) | Selective Index [3]: 10 | False pimpernel pre (herbicidal efficacy grade) (false pimpernel [4]; dosage 1000 g/ha): 4 (90%-100% of herbicidal efficacy or phytotoxicity) | Bulrush pre (herbicidal efficacy grade) (bulrush [5]; dosage 1000 g/ha): 4 (90%-100% of herbicidal efficacy or phytotoxicity) | Bulrush post (herbicidal efficacy grade) (bulrush [6]; dosage 1000 g/ha): 4 (90%-100% of herbicidal efficacy or phytotoxicity) | Phytotoxicity to paddy rice [7, 8]: 1 (1%-39% of herbicidal efficacy or phytotoxicity)

COC(=O)N(c1ccccc1CN1CC(C)(c2ccccc2)OC1=O)S(=O)(=O)C(F)(F)F (centres unmarked) [1-142]
False pimpernel post (herbicidal efficacy grade) (false pimpernel [1]; dosage 1000 g/ha): 4 (90%-100% of herbicidal efficacy or phytotoxicity) | Burnyard grass post (herbicidal efficacy grade) (barnyard glass; dosage 1000 g/ha): 4 (90%-100% of herbicidal efficacy or phytotoxicity) | Herbicide effect to Bulrush (bulrush [2]): 4 (90%-100% of herbicidal efficacy or phytotoxicity) | Selective Index [3]: ≧30 | False pimpernel pre (herbicidal efficacy grade) (false pimpernel [4]; dosage 1000 g/ha): 4 (90%-100% of herbicidal efficacy or phytotoxicity) | Bulrush pre (herbicidal efficacy grade) (bulrush [5]; dosage 1000 g/ha): 4 (90%-100% of herbicidal efficacy or phytotoxicity) | Bulrush post (herbicidal efficacy grade) (bulrush [6]; dosage 1000 g/ha): 4 (90%-100% of herbicidal efficacy or phytotoxicity) | Phytotoxicity to paddy rice [7, 8]: 1 (1%-39% of herbicidal efficacy or phytotoxicity)

COC(=O)N(c1ccccc1CN1CC(C)(C(F)(F)F)OC1=O)S(=O)(=O)C(F)(F)F (centres unmarked) [1-143]
False pimpernel post (herbicidal efficacy grade) (false pimpernel [1]; dosage 1000 g/ha): 4 (90%-100% of herbicidal efficacy or phytotoxicity) | Burnyard grass post (herbicidal efficacy grade) (barnyard glass; dosage 1000 g/ha): 4 (90%-100% of herbicidal efficacy or phytotoxicity) | Herbicide effect to Bulrush (bulrush [2]): 4 (90%-100% of herbicidal efficacy or phytotoxicity) | Selective Index [3]: 10 | False pimpernel pre (herbicidal efficacy grade) (false pimpernel [4]; dosage 1000 g/ha): 4 (90%-100% of herbicidal efficacy or phytotoxicity) | Bulrush pre (herbicidal efficacy grade) (bulrush [5]; dosage 1000 g/ha): 4 (90%-100% of herbicidal efficacy or phytotoxicity) | Bulrush post (herbicidal efficacy grade) (bulrush [6]; dosage 1000 g/ha): 4 (90%-100% of herbicidal efficacy or phytotoxicity) | Phytotoxicity to paddy rice [7, 8]: 1 (1%-39% of herbicidal efficacy or phytotoxicity)

CCCC1(CC)CN(Cc2ccccc2N(C(=O)OC)S(=O)(=O)C(F)(F)F)C(=O)O1 (centres unmarked) [1-144]
False pimpernel post (herbicidal efficacy grade) (false pimpernel [1]; dosage 1000 g/ha): 4 (90%-100% of herbicidal efficacy or phytotoxicity) | Burnyard grass post (herbicidal efficacy grade) (barnyard glass; dosage 1000 g/ha): 4 (90%-100% of herbicidal efficacy or phytotoxicity) | Herbicide effect to Bulrush (bulrush [2]): 4 (90%-100% of herbicidal efficacy or phytotoxicity) | Selective Index [3]: 10 | False pimpernel pre (herbicidal efficacy grade) (false pimpernel [4]; dosage 1000 g/ha): 4 (90%-100% of herbicidal efficacy or phytotoxicity) | Bulrush pre (herbicidal efficacy grade) (bulrush [5]; dosage 1000 g/ha): 4 (90%-100% of herbicidal efficacy or phytotoxicity) | Bulrush post (herbicidal efficacy grade) (bulrush [6]; dosage 1000 g/ha): 4 (90%-100% of herbicidal efficacy or phytotoxicity) | Phytotoxicity to paddy rice [7, 8]: 1 (1%-39% of herbicidal efficacy or phytotoxicity)

CCC1(C(C)C)CN(Cc2ccccc2N(C(=O)OC)S(=O)(=O)C(F)(F)F)C(=O)O1 (centres unmarked) [1-145]
False pimpernel post (herbicidal efficacy grade) (false pimpernel [1]; dosage 1000 g/ha): 4 (90%-100% of herbicidal efficacy or phytotoxicity) | Burnyard grass post (herbicidal efficacy grade) (barnyard glass; dosage 1000 g/ha): 4 (90%-100% of herbicidal efficacy or phytotoxicity) | Herbicide effect to Bulrush (bulrush [2]): 4 (90%-100% of herbicidal efficacy or phytotoxicity) | Selective Index [3]: 10 | False pimpernel pre (herbicidal efficacy grade) (false pimpernel [4]; dosage 1000 g/ha): 4 (90%-100% of herbicidal efficacy or phytotoxicity) | Bulrush pre (herbicidal efficacy grade) (bulrush [5]; dosage 1000 g/ha): 4 (90%-100% of herbicidal efficacy or phytotoxicity) | Bulrush post (herbicidal efficacy grade) (bulrush [6]; dosage 1000 g/ha): 4 (90%-100% of herbicidal efficacy or phytotoxicity) | Phytotoxicity to paddy rice [7, 8]: 2 (40%-69% of herbicidal efficacy or phytotoxicity)

COCC1(C)CN(Cc2ccccc2N(C(=O)OCC(C)(C)C)S(=O)(=O)C(F)(F)F)C(=O)O1 (centres unmarked) [1-146]
False pimpernel post (herbicidal efficacy grade) (false pimpernel [1]; dosage 1000 g/ha): 4 (90%-100% of herbicidal efficacy or phytotoxicity) | Burnyard grass post (herbicidal efficacy grade) (barnyard glass; dosage 1000 g/ha): 4 (90%-100% of herbicidal efficacy or phytotoxicity) | Herbicide effect to Bulrush (bulrush [2]): 4 (90%-100% of herbicidal efficacy or phytotoxicity) | Selective Index [3]: 10 | False pimpernel pre (herbicidal efficacy grade) (false pimpernel [4]; dosage 1000 g/ha): 4 (90%-100% of herbicidal efficacy or phytotoxicity) | Bulrush pre (herbicidal efficacy grade) (bulrush [5]; dosage 1000 g/ha): 4 (90%-100% of herbicidal efficacy or phytotoxicity) | Bulrush post (herbicidal efficacy grade) (bulrush [6]; dosage 1000 g/ha): 4 (90%-100% of herbicidal efficacy or phytotoxicity) | Phytotoxicity to paddy rice [7, 8]: 1 (1%-39% of herbicidal efficacy or phytotoxicity)
